# Test results reported in article PMC12752606, “METTL10‐Mediated PIAS3 Methylation Links Purine Metabolism to Gastric Cancer Progression” (Advanced Science, 2025).
# Key:
# [1] = tested on: purine nucleotides in MKN45 and AGS cells; experiment: Purine metabolite levels by LC-MS; assay type: cell-based; conditions: 20 µM
# Description: Cells were collected and transferred to centrifuge tubes, followed by three washes with cold PBS. The samples were then resuspended in an extraction solution (methanol: acetonitrile: water = 2:2:1, v/v/v, 1 mL) and vortexed for 30 s. The suspension underwent ice bath sonication for 10 min and frozen and thawed in liquid nitrogen for repeated three times. To fully precipitate proteins, the samples were incubated at −20 °C for 1 h. Subsequently, the cell lysates were centrifuged at 13000 rpm for 15 min at 4 °C. The supernatant was then lyophilized using a low‐temperature vacuum centrifugal concentrator and analyzed by LC‐MS using the AB SCIEX QTRAP 6500^+ system.
# [2] = tested on: T1, METTL10; experiment: In vitro (cell-free) methylation of GST-PIAS3 by His-METTL10, immunoblotting; assay type: biochemical; conditions: 20 µM or higher; GST-PIAS3 with His-METTL10
# T1 construct: purchased ICE Bioscience Inc
# Description: For the in vitro methylation assay, His‐METTL10 (1 µg) was incubated with recombinant human Histone H4 protein (20 ng; Abcam, ab198115) or GST‐PIAS3 (100 ng) of in methylation reaction buffer (50 mM Tris‐HCl (pH 8.0), 20 mM KCl, 5 mM DTT, 4 mM EDTA) containing 20 µM S‐(5′‐adenosyl)‐L‐methionine chloride dihydrochloride (SAM) at 37 °C for 1 h. The reaction was terminated by boiling the samples in SDS‐PAGE loading buffer, and the products were analyzed by immunoblotting.
# [3] = tested on: gastric tumors of K19-C2mE mice; experiment: K19-C2mE spontaneous gastric cancer mouse model; assay type: in vivo; conditions: 40 mg/kg/day i.p., 4 weeks
# Description: For the subcutaneous tumor model, 5 × 10⁶ MKN45 cells suspended in 100 µL of sterile PBS were injected subcutaneously into the flanks of BALB/c nude mice. When tumor volumes reached approximately 50 mm^3, mice were randomized into three groups (Vehicle control, LZQ‐02‐023‐01 at 20 mg/kg or 40 mg/kg, n = 10 per group). All treatments were administered via intraperitoneal injection once daily for 14 consecutive days. Tumor volumes were measured every 2 days using calipers and calculated using the formula: volume = [length × (width[2])]/2. Mice were sacrificed on day 24 for endpoint analyses. For genetically engineered mouse models (GEMMs), 25‐week‐old K19‐C2mE mice were randomized into Vehicle control (n = 8) and LZQ‐02‐023‐01 treatment (40 mg/kg, n = 8) groups. Both groups received daily intraperitoneal injections for 28 consecutive days. Similarly, 8‐week‐old Cldn18‐AT mice were induced with tamoxifen (100 mg/kg, T5648, Sigma) and, 2 weeks post‐induction, randomized into Vehicle (n = 6) and LZQ‐02‐023‐01 (40 mg/kg, n = 6) treatment groups. Treatments were administered daily via intraperitoneal injection for 28 days.
# Paraffin sections were initially placed in an oven at 65 °C for 30 min to melt the paraffin. The slides were then immersed in two consecutive xylene baths for 10 min each to dewax the tissue, followed by hydration through a series of graded ethanol solutions. […]
smiles,measurement,setting,value
"Cc1ccc(Nc2ncc3c(n2)N(C)C(=O)N(c2cccc(N)c2)C3)cn1 [LZQ-02-023-01, Three‐(3‐aminophenyl)‐1‐methyl‐7‐((6‐methylpyridin‐3‐yl)amino)‐3,4‐dihydropyrimido [4,5‐d] pyrimidin‐2 (1H)‐one]",Levels of purine nucleotides,[1],decreased
same,Methylation of PIAS3 in cell-free system,[2],decreased
same,"Pathologic grade of lesions and proliferation (H&E, Ki-67)",[3],lower pathologic grade lesions and proliferation
same,Tumor burden and progression,[3],significantly reduce tumor burden and progression
